Experimental data as given in ChEMBL document CHEMBL3992484, “Synthetic α-Hydroxytropolones as Inhibitors of HIV Reverse Transcriptase Ribonuclease H Activity” (Medchemcomm, 2016).
pEC50, pIC50: −log10 of the molar value.

biological target: not listed separately; assay: Inhibition of HIV-1 RT-RNase H using 18-nucleotide 3'-fluorescein-labeled RNA annealed to a complementary 18-nucleotide 5'-dabsyl-labeled DNA as substrate measured after 10 mins by FRET assay; design: species or system Human immunodeficiency virus 1; settings: not given

SMILES	pIC50
COC(=O)c1c(C)cc(O)c(=O)c(O)c1Br	6.89
CCOC(=O)c1cc(O)c(=O)c(O)cc1C	6.60
COC(=O)c1cc(O)c(=O)c(O)cc1C	6.80
CC(=O)c1cc(O)c(=O)c(O)cc1C	6.54

tested on: Human immunodeficiency virus 1; assay: Antiviral activity against HIV1 RF infected in human CEM-SS cells assessed as protection against viral-induced cytopathic effect after 7 days by XTT assay; assay type: functional, cell-based; settings: Human immunodeficiency virus 1, RF, 168 h

SMILES	pEC50
COC(=O)c1c(C)cc(O)c(=O)c(O)c1Br	5.66
CCOC(=O)c1cc(O)c(=O)c(O)cc1C	5.30
COC(=O)c1cc(O)c(=O)c(O)cc1C	5.12
CC(=O)c1cc(O)c(=O)c(O)cc1C	5.16

tested on: not listed separately; assay: Cytotoxicity against human CEM-SS cells after 7 days by XTT assay; assay type: cell-based; settings: not given

SMILES	CC50 at 168 h [µM]
COC(=O)c1c(C)cc(O)c(=O)c(O)c1Br	7.6
CC(=O)c1cc(O)c(=O)c(O)cc1C	20

tested on: Human immunodeficiency virus 1; assay: Stabilization of HIV-1 RT-RNase H assessed as change in melting temperature at 20 uM by sypro-orange dye-based differential scanning fluorimetric analysis; settings: not given

SMILES	ΔTm [°C]
CC(C)c1ccc(O)c(=O)c(O)c1	2.3
COC(=O)c1c(C)cc(O)c(=O)c(O)c1Br	2.48
CCOC(=O)c1cc(O)c(=O)c(O)cc1C	2.4
COC(=O)c1cc(O)c(=O)c(O)cc1C	2.7
CC(=O)c1cc(O)c(=O)c(O)cc1C	2.9
